# Measured values: US20200148682A1, “AKT ISOZYME-SPECIFIC COVALENT INHIBITORS DERIVED FROM REDOX-SIGNALING LIPIDS” (Cornell University, priority 2017, published 2020)
# Experiments:
# Format in all cases: cell-based
# [1] = target: T1, Akt3(C119S) (Homo sapiens, UniProt Q9Y243, C119S); test: AKTAR FRET assay in live HEK293T cells; conditions: for Akt3(C119S) activity (FRET) during treatment: 5 μM; for Akt3(C119S) activity (FRET) after drug withdrawal: 24 hours after removal from media
# T1 construct: expressed in transfected cells; host or cells: HEK293T
# Method: (§1) FIGS. 21C-21D: HEK293T cells were transfected with plasmids encoding AKTAR and Halo-Akt3 (1:1). After 12 hours, cells were treated with MK-2206 (5 μM) or MK-HNE (5 μM). After 24 hours and 48 hours Akt3 activity was measured using ratiometric FRET analysis in live cells. After 48 hours, cells were washed two times with drug-free media containing 10% FBS and allowed to recover in 3% FBS MEM media for another 24 hours, after which time Akt3 activity was assayed using FRET again. wd=withdrawal for 24 hours. […] FIG. 21D is a graph showing quantitation of all data sets for treatment of HEK293T cells expressing Halo-Akt3/AKTAR. […] FIG. 21F is a graph showing quantitation of all data sets for treatment of HEK293T cells expressing Halo-Akt2/AKTAR. […] FIG. 21H is a graph showing quantitation of all data sets for treatment of HEK293T cells expressing Halo-Akt3C119S mutant/AKTAR.
# (§2) HEK293T cells were plated in imaging plates at 60% confluence. After 24 hours, cells in each plate were transfected with 1 μg AktAR reporter plasmid and 1 μg plasmid of the designated HaloTag fusion Akt gene in PCS2+8 vector, using TransIT 2020 (6 μL) (FIG. 21B). 12 hours after transfection, cells were treated with 5 μM inhibitor or the equivalent final volume of DMSO in rinse medium containing 3% FBS and incubated for 24 hours before imaging. FRET imaging was performed using a Zeiss LSM 710 confocal microscope as previously described. Briefly, a 458 nm argon laser was used for excitation. The signals in the cyan channel (463-498 nm) and the yellow channel (525-620 nm) were recorded. Cells were then incubated in drug medium for another 24 hours before next imaging. The medium was aspirated and the cells were gently rinsed with 3% FBS in rinse medium twice every 30 min over the next hour, Fresh rinse medium with 3% FBS was added and the cells were imaged again after 24 hours. For quantification, the mean CFP and YFP signal intensity was measured using Image by drawing a freehand circle around the cells, and the ratio image was calculated. Graphing and data analysis (Student's t-test) were performed using Prism software.
# (§3) One of the key benefits of covalent inhibition is the ability to uncouple pharmacokinetics from pharmacodynamics. This effect is achieved, because once irreversible inhibition occurs, an irreversible inhibitor will remain bound to its target post clearance of the unbound inhibitor. On the other hand, for a reversible inhibitor, as drug concentration drops, the drug is released from its target and inhibition is lost. This situation can be modeled in cell culture by removal of the drug from the media and measuring changes in activity as a function of time post drug removal. Akt inhibition was assayed using AKTAR (FIG. 21A). This fusion of two fluorescent proteins emits two different frequencies of light when excited with blue light, depending on the activity of Akt. When the construct is selectively phosphorylated by Akt, both blue and green light are emitted, due to fluorescence resonance energy transfer (FRET) from the CFP to the YFP. However, when the protein is not phosphorylated, emission is mainly in the blue channel. Thus the ratio of green to blue emission is a direct readout of Akt activity in live cells.
# [2] = target: T2, Akt2 (pT309) (Homo sapiens, UniProt P31751); test: Western blot and ratiometric ELISA of Akt phosphorylation in HEK293T cells; conditions: 5 μM, 48 hours
# T2 construct: expressed in transfected cells; host or cells: HEK293T
# [3] = target: T3, Akt1 (Homo sapiens, UniProt P31749); test: In-gel fluorescence assay (Cy5-azide click) of covalent labeling in transfected HEK293T cells; conditions: 5 μM, 48 hours
# T3 construct: expressed in transfected cells; host or cells: HEK293T
# Description: (§4) Overexpressed Akt proteins were labeled with Cy5-small-molecule-fluorophore-conjugated azide (Cy5-azide) using standard click chemistry. FIG. 16A top gel is an image showing Cy5 channel (used to evaluate the extent of covalent binding on each Akt protein). The lysate from non-transfected HEK 293T cells was also used for comparison. M, molecular weight ladder. […] FIG. 16B top gel is an image showing Cy5 channel. M is a molecular weight ladder. FIG. 16B bottom is an image showing western blots probing Halo and actin, respectively. […] Error bars designate s.d. […] Normalized fluorescent signal (NFS) was calculated from the following equation: NFS=[(Cy5(X μM drug)−Cy5(No transfection))/Halo(X μM drug)]÷[(Cy5(no drug)−Cy5(No transfection))/Halo(no drug)]. The relative fluorescent signal (RFS) is calculated from the following equation: RFS=(Cy5(X μM drug)/Halo(X μM drug)) (Cy5(no drug)/Halo(no drug))
# (§5) Cell transfection with the designated plasmid encoding a given HaloTag-Akt fusion gene was carried out following the general procedure described in Example 12. After 20-24 hours, the transfection media were aspirated and replaced with fresh 2 mL rinse MEM medium supplemented with 3% FBS containing the indicated concentration of inhibitor or the equivalent final volume of DMSO and the plates were incubated for the indicated period of time. […]
# [4] = target: T4, Akt3 C119S mutant (Homo sapiens, UniProt Q9Y243, C119S); test: as above; conditions: 5 μM, 48 hours
# T4 construct: expressed in transfected cells; host or cells: HEK293T
# Description: as §4, §5
# [5] = target: T5, Halo-Akt2 (Homo sapiens, UniProt P31751); test: AKTAR FRET assay in live HEK293T cells; conditions: 5 μM, 24 hours
# T5 construct: expressed in transfected cells; host or cells: HEK293T
# Method: as §1, §2, §3
# [6] = target: T6, Halo-Akt3 (Homo sapiens, UniProt Q9Y243); test: AKTAR FRET assay in live HEK293T cells; conditions: for Akt3 activity (green/blue FRET ratio) during treatment: 5 μM, 24 hours
# T6 construct: expressed in transfected cells; host or cells: HEK293T
# Method: as §1, §2, §3
# T1 sequence (Q9Y243 whole entry C119S): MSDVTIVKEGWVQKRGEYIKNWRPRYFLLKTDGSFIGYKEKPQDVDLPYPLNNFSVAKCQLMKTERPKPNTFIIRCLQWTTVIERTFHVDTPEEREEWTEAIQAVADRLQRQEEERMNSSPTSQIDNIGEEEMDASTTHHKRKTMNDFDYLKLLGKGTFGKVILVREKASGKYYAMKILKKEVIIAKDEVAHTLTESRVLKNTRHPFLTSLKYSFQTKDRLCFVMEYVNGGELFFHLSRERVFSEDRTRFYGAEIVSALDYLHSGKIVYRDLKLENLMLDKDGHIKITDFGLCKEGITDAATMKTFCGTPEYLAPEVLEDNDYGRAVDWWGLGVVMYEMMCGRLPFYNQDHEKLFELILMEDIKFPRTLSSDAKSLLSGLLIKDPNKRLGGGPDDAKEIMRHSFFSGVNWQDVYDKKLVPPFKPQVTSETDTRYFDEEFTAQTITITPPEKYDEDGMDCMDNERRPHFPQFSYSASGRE
# T6 sequence (Q9Y243 whole entry): as the sequence (Q9Y243 whole entry C119S) above, with S119C counted along it
# T5 sequence (P31751 whole entry): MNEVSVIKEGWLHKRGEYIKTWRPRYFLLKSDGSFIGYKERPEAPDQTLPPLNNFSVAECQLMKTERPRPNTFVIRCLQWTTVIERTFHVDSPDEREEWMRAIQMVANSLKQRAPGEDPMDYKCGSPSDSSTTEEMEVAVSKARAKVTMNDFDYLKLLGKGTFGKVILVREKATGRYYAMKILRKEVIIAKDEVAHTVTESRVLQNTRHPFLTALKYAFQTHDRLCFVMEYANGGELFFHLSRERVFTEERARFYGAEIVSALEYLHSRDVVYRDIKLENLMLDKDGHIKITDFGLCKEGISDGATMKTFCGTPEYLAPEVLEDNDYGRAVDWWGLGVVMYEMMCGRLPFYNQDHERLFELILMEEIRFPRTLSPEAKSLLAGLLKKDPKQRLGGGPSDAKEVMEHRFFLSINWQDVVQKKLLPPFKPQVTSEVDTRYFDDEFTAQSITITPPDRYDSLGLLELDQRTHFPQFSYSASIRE
# T4 sequence (Q9Y243 whole entry C119S): as the sequence (Q9Y243 whole entry C119S) above
# T3 sequence (P31749 whole entry): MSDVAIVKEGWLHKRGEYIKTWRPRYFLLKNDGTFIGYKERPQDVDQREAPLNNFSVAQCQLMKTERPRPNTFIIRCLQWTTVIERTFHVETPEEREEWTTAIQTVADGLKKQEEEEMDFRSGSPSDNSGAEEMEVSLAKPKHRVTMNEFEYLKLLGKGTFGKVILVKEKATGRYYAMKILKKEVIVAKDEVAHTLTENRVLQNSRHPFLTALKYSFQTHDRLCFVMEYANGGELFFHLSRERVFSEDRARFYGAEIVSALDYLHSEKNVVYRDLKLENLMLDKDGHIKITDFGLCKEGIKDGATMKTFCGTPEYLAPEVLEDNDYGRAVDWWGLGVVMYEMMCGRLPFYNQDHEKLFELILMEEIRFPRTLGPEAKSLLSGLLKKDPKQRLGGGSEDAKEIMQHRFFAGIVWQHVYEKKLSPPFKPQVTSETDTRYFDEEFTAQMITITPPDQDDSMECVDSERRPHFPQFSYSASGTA
# T2 sequence (P31751 whole entry): as the sequence (P31751 whole entry) above
phosphorylation level of Akt2 [2],covalent inhibition of Akt1 isoform [3],covalent modification of C119S mutant of Akt3 [4],Structure (SMILES),Akt3(C119S) activity (FRET) during treatment [1],Akt3(C119S) activity (FRET) after drug withdrawal [1],Akt2 activity (green/blue FRET ratio) during treatment [5],Akt3 activity (green/blue FRET ratio) during treatment [6],"Akt3 activity (green/blue FRET ratio) after drug withdrawal ([6]; 48 hours drug, then 24 hours withdrawal)"
did not affect phosphorylation levels,no covalent inhibition,no covalent modification,"C#CCCCC(O)/C=C/C(=O)NC1(c2ccc(-c3nc4ccn5c(=O)[nH]nc5c4cc3-c3ccccc3)cc2)CCC1.Cl (stereo not drawn) [MK-HNE, (E)-8-(4-(1-(4-Hydroxynon-2-en-8-ynamido)cyclobutyl)phenyl)-3-oxo-9-phenyl-2,3-dihydro-[1,2,4]triazolo[3,4-f][1,6]naphthyridin-7-ium Chloride]",Akt inhibition was observed,no inhibition was observed,,,
,,,NC1(c2ccc(-c3nc4ccn5c(=O)[nH]nc5c4cc3-c3ccccc3)cc2)CCC1 [MK-2206],Akt inhibition was observed,no inhibition was observed,decrease in green/blue fluorescence,decrease in green/blue fluorescence,returned to those observed in untreated cells
,,,"C#CCCCC(F)/C=C/C(=O)NC1(c2ccc(-c3nc4ccn5c(=O)[nH]nc5c4cc3-c3ccccc3)cc2)CCC1.Cl (stereo not drawn) [MK-FNE, (E)-8-(4-(1-(4-Fluoronon-2-en-8-ynamido)cyclobutyl)phenyl)-3-oxo-9-phenyl-2,3-dihydro-[1,2,4]triazolo[3,4-f][1,6]naphthyridin-7-ium Chloride]",,,decrease in green/blue fluorescence,decrease in green/blue fluorescence,
